Test results published in article PMC9023544, “Ketone-selenoesters as potential anticancer and multidrug resistance modulation agents in 2D and 3D ovarian and breast cancer in vitro models” (Scientific Reports, 2022).

How the values were obtained:
[1] = test system: ABC superfamily genes in HOC/ADR; assay: Expression of genes encoding ABC transporters, qPCR; format: cell-based, human; settings: IC10 alone, 48 h
Method: Based on the fact that compounds K3, K4, K7 sensitized drug-resistant cell lines (HOC/ADR, MCF-7/PAX) and modulated ATPase activity of one from the ABC proteins (P-gp), we verified the potential of these compounds to affect ABC superfamily gene expression. The ovarian and breast cancer cell lines (parental cells and resistant sub-line) were analysed for the expression profile of genes encoding the ABC proteins in the previous works[18]–[20]. […] After 48 h, the effect of compounds alone or in the combination with cytostatics was observed (Supplementary Tables 1, Table 2).
To determine the impact of selected compounds on the expression of genes encoding ABC transporter, HOC/ADR and MCF-7/PAX cells were seeded for 24 h into 5 cm Petri dishes with DMEM medium at the cell density 1 × 10^5 cells/mL. Afterwards, the cells were washed 1× with PBS and new fresh DMEM supplemented with K3, K4, and K7 (in concentration corresponding to their IC10 value) alone or combined with cytostatics (Adriamycin or paclitaxel in concentration corresponding to their IC25 value) was added. In the experiment, positive and negative control was also included (positive—untreated cells, negative—cells treated only with cytostatics). After 48 h exposure, the cells were washed once with PBS and released from the surface by using the above-mentioned trypsin–EDTA procedure. The enzyme reaction was stopped by medium addition and the cells were centrifuged (3200×g; 10 min, 4 °C). The supernatants were removed and before the next centrifugation, the pellets were resuspended in 1.5 mL of cooled PBS (5400×g; 10 min, 4 °C). After the second washing step, the cells were centrifuged another time (10,000×g; 3 min, 4 °C). Subsequently, 1 mL of Trizol (Invitrogen) was added to the pellets and the compounds were stored − 80 °C.
The RNA concentration of selenoester treated samples was determined using QuantiT RiboGreen RNA Assay Kit and Infinite M200 plate reader (Tecan, Männedor, Switzerland). The cDNA was synthesized from 0.5 µg of total RNA by RevertAid First Strand Synthesis cDNA Kit (MBI Fermentas, Vilnius, Lithuania). To determine the quality of cDNA, the ubiquitin C gene fragment was amplified. The experiment was performed in 384-well block by using ViiA7 Real-Time PCR System (Life Technologies, Camarillo, California, United States). A master mix contained 0.25 µL of 20× TaqMan Gene Expression Assay, 1 µL of 5× HotFIREPol Probe qPCR Mix Plus, 1.75 µL of RNase free water and 2 µL of 8× diluted cDNA. The final reaction volume was 5 µL. The PCR parameters were as follows: initial hold (50 °C for 2 min), denaturation (95 °C for 10 min), followed by 45 cycles (denaturation at 95 °C for 15 s, annealing at 60 °C for 1 min). After each cycle, the fluorescent signal was determined. For each compound, duplicates were analysed and those with a standard deviation higher than 0.5 Ct were re-analysed. A quantitate real-time PCR was followed by MIQE guidelines. To compare the relative transcript levels of genes, the software REST 2009 (Qiagen, Hilden, Germany) was used.
Table 1. Effect of selenoesters on the expression of genes of the ABC superfamily in Adriamycin-resistant ovarian carcinoma cell line (HOC/ADR).
Gene expression of ABC transporters were estimated using comercial predesigned Taqman Gene Expression Assays (Life technologies). TaqMan Gene Expression Assays are based on 5´ nuclease chemistry, and each assay contains the primer and probe set for target of interest. Taqman assays IDs and GenBank Accession numbers of reference sequencies identifying their location and amplicon lengths are included in […]. * Relative transcript levels (P-value ) in treated and non-treated cancer cell lines were compared using REST 2009 software.

HOC/ADR spheroids = assay: Sensitization of resistant 3D spheroids to Adriamycin; format: cell-based, human; settings: Adriamycin IC50 / Adriamycin + selenoester IC50; K3 3 µM, K4 5 µM, K7 5 µM; 72 h
Method: In the previous section, the cytotoxic activity of selenoesters was determined against several 3D models of sensitive and resistant cell lines. Subsequently, the selenoesters were tested for their potential to sensitize the drug-resistant HOC/ADR and MCF-7/PAX spheroids. Mature 72 h old spheroids were incubated with the non-toxic concentration of selenoesters with Adriamycin or paclitaxel (concentration range 0.6–80 µM) for HOC/ADR or MCF-7/PAX, respectively (Table 8). After another 72 h incubation, the sensitization rate (fold change) was evaluated. […] The highest sensitization rate of ovarian spheroids (HOC/ADR) was induced by 5 µM K4, followed by 5 µM K7, and 3 µM K3.
To determine the sensitization potential of compounds, HOC/ADR and MCF-7/PAX were seeded into the ultra-low attachment 96-well plates (Sigma-Aldrich) at a cell density 0.5 × 10^5 cells/mL. After 3 days of spheroid formation, spheroids were carefully washed once with PBS and fresh DMEM medium (99 µL) containing the appropriate concentration of compounds K3, K4, K7 was added. Using a binary serial compound dilution, the concentration range of both cytostatics was prepared in the new 96-well plates (0.06–8 mM). After 1 µL transfer of cytostatics into the corresponding cell line, the final concentration range were 0.6–80 µM. The required volume of DMSO (1% V/V) was added to the positive control. After an incubation of 72 h, 100 µL of CellTiter-Glo 3D Reagent (Promega) was added to each well. Plates with spheroids were incubated for 25 min at room temperature. Afterwards, the luminescent signal was recorded.

SMILES | ABCA1 Expression Difference [1] | ABCA2 Expression Difference [1] | ABCA3 Expression Difference [1] | ABCA5 Expression Difference [1] | ABCA7 Expression Difference [1] | ABCA7 Treated vs. Untr. [1] | ABCB1 Expression Difference [1] | ABCB2 Expression Difference [1] | ABCB2 Treated vs. Untr. [1] | ABCB3 Expression Difference [1] | ABCB6 Expression Difference [1] | ABCB8 Expression Difference [1] | ABCB9 Expression Difference [1] | ABCB10 Expression Difference [1] | ABCC1 Expression Difference [1] | ABCC2 Expression Difference [1] | ABCC5 Expression Difference [1] | ABCC10 Expression Difference [1] | ABCD1 Expression Difference [1] | ABCD1 Treated vs. Untr. [1] | also measured
CC(=O)C[Se]C(=O)c1ccc(Br)cc1 [K3] | 0.968 | 0.997 | 0.838 | 2.693 | 0.322 | DOWN | 3.825 | 0.315 | DOWN | 4.904 | 4.860 | 2.659 | 4.156 | 7.275 | 6.415 | 2.907 | 2.301 | 1.562 | 0.665 | DOWN | ABCA3 Treated vs. Untr. [1]: DOWN; ABCD2 Expression Difference [1]: 1.845; ABCD3 Expression Difference [1]: 2.960; ABCD4 Expression Difference [1]: 2.760; ABCE1 Expression Difference [1]: 7.298; ABCF1 Expression Difference [1]: 1.638; ABCF2 Expression Difference [1]: 2.868; ABCF3 Expression Difference [1]: 2.163; ABCG1 Expression Difference [1]: 0.932; ABCG2 Expression Difference [1]: 1.869; ABCG4 Expression Difference [1]: 0.755; ABCG4 Treated vs. Untr. [1]: DOWN; HOC/ADR Fold change (3D) (HOC/ADR spheroids): (1.2 ± 0.2)×
CC(=O)C[Se]C(=O)c1ccccc1C(F)(F)F [K4] | 1.347 | 0.948 | 0.832 | 2.334 | 0.359 | DOWN | 3.696 | 0.435 | DOWN | 4.568 | 5.132 | 3.526 | 4.981 | 8.165 | 8.545 | 3.272 | 2.336 | 1.545 | 0.796 | DOWN | ABCA3 Treated vs. Untr. [1]: DOWN; ABCB7 Expression Difference [1]: 7.250; ABCD2 Expression Difference [1]: 4.885; ABCD3 Expression Difference [1]: 3.302; ABCD4 Expression Difference [1]: 2.681; ABCE1 Expression Difference [1]: 6.945; ABCF1 Expression Difference [1]: 1.998; ABCF2 Expression Difference [1]: 3.096; ABCF3 Expression Difference [1]: 2.262; ABCG1 Expression Difference [1]: 1.213; ABCG2 Expression Difference [1]: 1.302; ABCG4 Expression Difference [1]: 0.776; ABCG4 Treated vs. Untr. [1]: DOWN; HOC/ADR Fold change (3D) (HOC/ADR spheroids): (2.3 ± 0.1)×
CC(=O)C[Se]C(=O)c1ccc(C(C)(C)C)cc1 [K7] | 1.104 | 1.775 | 1.018 | 1.970 | 0.341 | DOWN | 5.009 | 0.591 | DOWN | 3.406 | 4.646 | 3.581 | 4.530 | 7.288 | 7.835 | 3.865 | 3.327 | 1.899 | 0.898 | DOWN | ABCB7 Expression Difference [1]: 7.145; ABCD2 Expression Difference [1]: 0.638; ABCD2 Treated vs. Untr. [1]: DOWN; ABCD3 Expression Difference [1]: 4.007; ABCD4 Expression Difference [1]: 3.541; ABCE1 Expression Difference [1]: 10.154; ABCF1 Expression Difference [1]: 2.212; ABCF2 Expression Difference [1]: 4.029; ABCF3 Expression Difference [1]: 3.001; ABCG1 Expression Difference [1]: 1.059; ABCG2 Expression Difference [1]: 1.468; ABCG4 Expression Difference [1]: 1.431; HOC/ADR Fold change (3D) (HOC/ADR spheroids): (1.6 ± 0.1)×
